# Assay results: the supplement of paper PMC10307832
# Compound: COc1nc(N)nc2c1ncn2[C@@H]1O[C@H](CO)[C@@H](O)[C@@H]1O [Nelarabine] + Cc1cc(Nc2cc(N3CCN(C)CC3)nc(Sc3ccc(NC(=O)C4CC4)cc3)n2)n[nH]1 [Tozasertib] (partner 0.1 µM)
# Assay: relative viability (nuclei count vs DMSO), 5 days (fraction); higher = more cells survive
# Conditions: first compound 0.01 µM
# Summary of the method: (§1)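 Each reported value is a median over duplicate plates. It expresses relative viability: treated-well nuclei count divided by vehicle-well nuclei count. Lung cancer cell lines in 1536-well plates were dosed by pin tool a day after seeding, alone with one drug or with a fixed anchor-drug dose plus five library-drug doses (not always all listed) in √10 steps, and nuclei were counted after 5 days.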
row,Cell Line,relative viability
1,NCI-H460,0.834
2,NCI-H520,0.574
3,NCI-H522,0.529
4,NCI-H596,1.07
5,NCI-H647,0.347
6,NCI-H650,0.787
7,NCI-H661,0.343
8,NCI-H727,0.789
9,NCI-H838,0.285
10,NCI-H1355,0.521
11,NCI-H1395,0.839
12,NCI-H1437,0.466
13,NCI-H1650,0.393
14,NCI-H1651,0.944
15,NCI-H1666,0.626
16,NCI-H1734,0.305
17,NCI-H1755,0.683
18,NCI-H1793,0.316
19,NCI-H1915,0.576

row,Cell Line,relative viability
1,NCI-H1944,0.285
2,NCI-H1975,0.69
3,NCI-H1993,0.662
4,NCI-H2009,0.893
5,NCI-H2023,0.416
6,NCI-H2085,0.847
7,NCI-H2087,0.303
8,NCI-H2126,0.968
9,NCI-H2170,0.81
10,NCI-H2228,0.226
11,NCI-H2342,0.532
12,NCI-H2347,0.659
13,NCI-H2405,0.805
14,NCI-H3122,0.547
15,PC-3 [JPC-3],1.02
16,PC-14,0.625
17,RERF-LC-KJ,0.558
18,SK-LU-1,0.307
19,SK-MES-1,1

# Same assay, conditions: first compound 0.03162 µM
row,Cell Line,relative viability
1,NCI-H460,0.253
2,NCI-H520,0.315
3,NCI-H522,0.605
4,NCI-H596,0.835
5,NCI-H647,0.207
6,NCI-H650,0.616
7,NCI-H661,0.334
8,NCI-H727,0.816
9,NCI-H838,0.274
10,NCI-H1355,0.483
11,NCI-H1395,0.67
12,NCI-H1437,0.353
13,NCI-H1650,0.307
14,NCI-H1651,0.767
15,NCI-H1666,0.572
16,NCI-H1734,0.253
17,NCI-H1755,0.524
18,NCI-H1793,0.317
19,NCI-H1915,0.417

row,Cell Line,relative viability
1,NCI-H1944,0.239
2,NCI-H1975,0.689
3,NCI-H1993,0.553
4,NCI-H2009,0.748
5,NCI-H2023,0.41
6,NCI-H2085,0.914
7,NCI-H2087,0.24
8,NCI-H2126,0.864
9,NCI-H2170,0.689
10,NCI-H2228,0.163
11,NCI-H2342,0.513
12,NCI-H2347,0.443
13,NCI-H2405,0.682
14,NCI-H3122,0.403
15,PC-3 [JPC-3],0.747
16,PC-14,0.645
17,RERF-LC-KJ,0.483
18,SK-LU-1,0.198
19,SK-MES-1,0.89

# Same assay, conditions: first compound 0.1 µM
row,Cell Line,relative viability
1,NCI-H460,0.38
2,NCI-H520,0.429
3,NCI-H522,0.456
4,NCI-H596,0.879
5,NCI-H647,0.387
6,NCI-H650,0.694
7,NCI-H661,0.333
8,NCI-H727,0.617
9,NCI-H838,0.272
10,NCI-H1355,0.478
11,NCI-H1395,0.814
12,NCI-H1437,0.488
13,NCI-H1650,0.331
14,NCI-H1651,0.689
15,NCI-H1666,0.606
16,NCI-H1734,0.253
17,NCI-H1755,0.561
18,NCI-H1793,0.328

row,Cell Line,relative viability
1,NCI-H1915,0.633
2,NCI-H1944,0.252
3,NCI-H1975,1.05
4,NCI-H1993,0.623
5,NCI-H2009,0.742
6,NCI-H2023,0.39
7,NCI-H2085,0.733
8,NCI-H2087,0.22
9,NCI-H2126,0.779
10,NCI-H2170,0.767
11,NCI-H2342,0.446
12,NCI-H2347,0.523
13,NCI-H2405,0.663
14,PC-3 [JPC-3],0.934
15,PC-14,0.597
16,RERF-LC-KJ,0.456
17,SK-LU-1,0.298
18,SK-MES-1,0.944

# Same assay, conditions: first compound 0.3162 µM
row,Cell Line,relative viability
1,NCI-H460,0.77
2,NCI-H520,0.457
3,NCI-H522,0.615
4,NCI-H596,0.862
5,NCI-H647,0.24
6,NCI-H650,0.768
7,NCI-H661,0.344
8,NCI-H727,0.598
9,NCI-H838,0.341
10,NCI-H1355,0.539
11,NCI-H1395,0.729
12,NCI-H1437,0.427
13,NCI-H1650,0.458
14,NCI-H1651,0.674
15,NCI-H1666,0.578
16,NCI-H1734,0.257
17,NCI-H1755,0.645
18,NCI-H1793,0.327
19,NCI-H1915,0.475

row,Cell Line,relative viability
1,NCI-H1944,0.27
2,NCI-H1975,0.911
3,NCI-H1993,0.586
4,NCI-H2009,0.812
5,NCI-H2023,0.33
6,NCI-H2085,0.882
7,NCI-H2087,0.19
8,NCI-H2126,0.809
9,NCI-H2170,0.88
10,NCI-H2228,0.245
11,NCI-H2342,0.478
12,NCI-H2347,0.565
13,NCI-H2405,0.73
14,NCI-H3122,0.434
15,PC-3 [JPC-3],0.891
16,PC-14,0.599
17,RERF-LC-KJ,0.5
18,SK-LU-1,0.323
19,SK-MES-1,0.924

# Same assay, conditions: first compound 1 µM
row,Cell Line,relative viability
1,NCI-H460,0.442
2,NCI-H520,0.429
3,NCI-H522,0.627
4,NCI-H596,0.827
5,NCI-H647,0.247
6,NCI-H650,0.735
7,NCI-H661,0.364
8,NCI-H727,0.694
9,NCI-H838,0.262
10,NCI-H1355,0.577
11,NCI-H1395,0.657
12,NCI-H1437,0.41
13,NCI-H1650,0.378
14,NCI-H1651,0.685
15,NCI-H1666,0.632
16,NCI-H1734,0.292
17,NCI-H1755,0.557
18,NCI-H1793,0.352
19,NCI-H1915,0.459

row,Cell Line,relative viability
1,NCI-H1944,0.253
2,NCI-H1975,0.926
3,NCI-H1993,0.571
4,NCI-H2009,0.752
5,NCI-H2023,0.422
6,NCI-H2085,0.736
7,NCI-H2087,0.245
8,NCI-H2126,0.824
9,NCI-H2170,0.73
10,NCI-H2228,0.214
11,NCI-H2342,0.462
12,NCI-H2347,0.225
13,NCI-H2405,0.67
14,NCI-H3122,0.534
15,PC-3 [JPC-3],0.899
16,PC-14,0.631
17,RERF-LC-KJ,0.513
18,SK-LU-1,0.332
19,SK-MES-1,0.937

# Compound: C=CCn1c(=O)c2cnc(Nc3ccc(N4CCN(C)CC4)cc3)nc2n1-c1cccc(C(C)(C)O)n1 [Adavosertib] + O=C(CCCCCCC(=O)Nc1ccccc1)NO [Vorinostat] (partner 1 µM)
# Assay: as above
# Conditions: first compound 0.01 µM
# Summary of the method: as §1
row,Cell Line,relative viability
1,NCI-H460,0.712
2,NCI-H520,0.756
3,NCI-H522,0.875
4,NCI-H596,0.691
5,NCI-H647,0.632
6,NCI-H650,0.367
7,NCI-H661,0.847
8,NCI-H727,0.934
9,NCI-H838,0.706
10,NCI-H1355,0.609
11,NCI-H1395,0.595
12,NCI-H1437,0.985
13,NCI-H1650,0.63
14,NCI-H1651,0.524
15,NCI-H1666,1.06
16,NCI-H1734,0.923
17,NCI-H1755,0.935
18,NCI-H1793,0.695

row,Cell Line,relative viability
1,NCI-H1915,0.552
2,NCI-H1944,0.541
3,NCI-H1975,0.973
4,NCI-H1993,0.725
5,NCI-H2009,0.829
6,NCI-H2023,0.671
7,NCI-H2085,0.782
8,NCI-H2087,0.812
9,NCI-H2126,0.738
10,NCI-H2170,0.866
11,NCI-H2342,0.679
12,NCI-H2347,0.548
13,NCI-H3122,0.991
14,PC-14,0.841
15,RERF-LC-KJ,0.65
16,SK-LU-1,0.734
17,SK-MES-1,1.09

# Same assay, conditions: first compound 0.03162 µM
row,Cell Line,relative viability
1,NCI-H460,0.702
2,NCI-H520,0.734
3,NCI-H522,0.968
4,NCI-H596,0.637
5,NCI-H647,0.538
6,NCI-H650,0.428
7,NCI-H661,0.809
8,NCI-H727,1.13
9,NCI-H838,0.694
10,NCI-H1355,0.649
11,NCI-H1395,0.759
12,NCI-H1437,0.784
13,NCI-H1650,0.731
14,NCI-H1651,0.626
15,NCI-H1666,0.865
16,NCI-H1734,0.865
17,NCI-H1755,0.864
18,NCI-H1793,0.739
19,NCI-H1915,0.521

row,Cell Line,relative viability
1,NCI-H1944,0.531
2,NCI-H1975,0.676
3,NCI-H1993,0.791
4,NCI-H2009,0.743
5,NCI-H2023,0.494
6,NCI-H2085,0.807
7,NCI-H2087,0.637
8,NCI-H2126,0.759
9,NCI-H2170,0.818
10,NCI-H2228,0.606
11,NCI-H2342,0.833
12,NCI-H2347,0.71
13,NCI-H2405,0.882
14,NCI-H3122,0.942
15,PC-3 [JPC-3],0.756
16,PC-14,0.85
17,RERF-LC-KJ,0.708
18,SK-LU-1,0.831
19,SK-MES-1,1.06

# Same assay, conditions: first compound 0.1 µM
row,Cell Line,relative viability
1,NCI-H460,0.906
2,NCI-H520,0.681
3,NCI-H522,1.02
4,NCI-H596,0.613
5,NCI-H647,0.643
6,NCI-H650,0.443
7,NCI-H661,0.764
8,NCI-H727,1.13
9,NCI-H838,0.701
10,NCI-H1355,0.679
11,NCI-H1395,0.619
12,NCI-H1437,0.936
13,NCI-H1650,0.485
14,NCI-H1651,0.567
15,NCI-H1666,0.935
16,NCI-H1734,0.622
17,NCI-H1755,0.682
18,NCI-H1793,0.581
19,NCI-H1915,0.53

row,Cell Line,relative viability
1,NCI-H1944,0.563
2,NCI-H1975,0.676
3,NCI-H1993,0.84
4,NCI-H2009,0.9
5,NCI-H2023,0.348
6,NCI-H2085,0.765
7,NCI-H2087,0.702
8,NCI-H2126,0.781
9,NCI-H2170,0.788
10,NCI-H2228,0.536
11,NCI-H2342,0.741
12,NCI-H2347,0.615
13,NCI-H2405,0.965
14,NCI-H3122,0.857
15,PC-3 [JPC-3],0.621
16,PC-14,0.638
17,RERF-LC-KJ,0.629
18,SK-LU-1,0.666
19,SK-MES-1,0.778

# Same assay, conditions: first compound 0.3162 µM
row,Cell Line,relative viability
1,NCI-H460,0.355
2,NCI-H520,0.59
3,NCI-H522,0.871
4,NCI-H596,0.415
5,NCI-H647,0.212
6,NCI-H650,0.333
7,NCI-H661,0.351
8,NCI-H727,1.15
9,NCI-H838,0.67
10,NCI-H1355,0.568
11,NCI-H1395,0.504
12,NCI-H1437,0.816
13,NCI-H1650,0.389
14,NCI-H1651,0.538
15,NCI-H1666,1.01
16,NCI-H1734,0.33
17,NCI-H1755,0.546
18,NCI-H1793,0.745
19,NCI-H1915,0.373
20,NCI-H1944,0.369
21,NCI-H1975,0.571
